Measured values reported in ChEMBL document CHEMBL1130098, “4-Heterocyclylpiperidines as selective high-affinity ligands at the human dopamine D4 receptor” (J Med Chem, 1997).

Tests used:
D(3) dopamine receptor = D(3) dopamine receptor (Homo sapiens, UniProt P35462)
Description: Ability to displace [3H]spiperone from human dopamine receptor D3 (hD3) receptor stably expressed in HEK293 cells.

D(4) dopamine receptor = target: T1, D(4) dopamine receptor (Homo sapiens, UniProt P21917)
T1 sequence (P21917 whole entry): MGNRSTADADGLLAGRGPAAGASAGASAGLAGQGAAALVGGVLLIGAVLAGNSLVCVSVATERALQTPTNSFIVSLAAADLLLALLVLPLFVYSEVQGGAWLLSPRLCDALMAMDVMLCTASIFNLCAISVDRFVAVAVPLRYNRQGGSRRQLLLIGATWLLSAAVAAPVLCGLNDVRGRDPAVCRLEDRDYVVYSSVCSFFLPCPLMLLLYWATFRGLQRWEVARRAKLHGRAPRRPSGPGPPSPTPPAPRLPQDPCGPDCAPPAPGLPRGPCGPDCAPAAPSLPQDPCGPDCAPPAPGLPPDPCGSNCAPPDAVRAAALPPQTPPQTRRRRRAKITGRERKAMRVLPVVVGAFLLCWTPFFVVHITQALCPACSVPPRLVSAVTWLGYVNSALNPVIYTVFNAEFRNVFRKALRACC
Description: Ability to displace [3H]spiperone from human dopamine receptor D4 (hD4) receptor stably expressed in HEK293 cells.

Chain of D(3) dopamine receptor (P35462 whole entry): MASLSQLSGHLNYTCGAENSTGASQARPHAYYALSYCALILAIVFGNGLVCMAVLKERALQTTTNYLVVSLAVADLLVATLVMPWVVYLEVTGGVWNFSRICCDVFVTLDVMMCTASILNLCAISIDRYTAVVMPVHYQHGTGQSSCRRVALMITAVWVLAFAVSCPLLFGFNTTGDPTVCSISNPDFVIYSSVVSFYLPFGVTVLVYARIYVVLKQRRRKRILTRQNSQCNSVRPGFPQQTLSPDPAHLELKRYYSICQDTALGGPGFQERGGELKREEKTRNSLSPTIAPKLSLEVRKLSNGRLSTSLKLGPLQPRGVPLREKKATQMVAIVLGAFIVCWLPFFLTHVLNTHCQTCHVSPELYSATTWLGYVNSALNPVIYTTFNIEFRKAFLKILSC

| Ki (D(3) dopamine receptor) | Ki (D(4) dopamine receptor) | SMILES |
| --- | --- | --- |
| 510 nM | 350 nM | CC1(C(=O)/C=C(\O)c2ccc(Cl)cc2)CCN(Cc2ccccc2)CC1 |
| 510 nM | 12 nM | O=C(/C=C(\O)c1ccc(Cl)cc1)C1CCN(Cc2ccccc2)CC1 |
| 1400 nM | 11 nM | c1ccc(CN2CCC(c3cc(-c4ccccc4)[nH]n3)CC2)cc1 |
| > 4200 nM | 23 nM | c1ccc(CCN2CCC(c3cc(-c4cccnc4)n[nH]3)CC2)cc1 |
| 1200 nM | 23 nM | c1ccc(CCN2CCN(c3cc(-c4ccccc4)[nH]n3)CC2)cc1 |
| 600 nM | 930 nM | c1ccc(CCN2CCC3(CCc4c(-c5ccccc5)n[nH]c43)CC2)cc1 |
| 1300 nM | 20 nM | Clc1ccc(-c2cc(C3CCN(Cc4ccccc4Cl)CC3)[nH]n2)cc1 |
| 720 nM | 13 nM | Clc1ccc(-c2cc(C3CCN(CC4CCCCC4)CC3)[nH]n2)cc1 |
| 3400 nM | 470 nM | Cc1cc(C2CCN(Cc3ccccc3)CC2)[nH]n1 |
| 2100 nM | 160 nM | c1ccc(Cc2cc(C3CCN(Cc4ccccc4)CC3)[nH]n2)cc1 |
| 1100 nM | 19 nM | c1ccc(CCN2CCC(c3cc(-c4cccs4)[nH]n3)CC2)cc1 |
| 140 nM | 1 nM | Nc1nc(-c2ccc(Cl)cc2)cc(C2CCN(Cc3ccccc3)CC2)n1 |

Continued, molecule first:

| SMILES | Ki (D(3) dopamine receptor) | Ki (D(4) dopamine receptor) |
| --- | --- | --- |
| Cc1c(C2CCN(Cc3ccccc3)CC2)n[nH]c1-c1ccc(Cl)cc1 | 430 nM | 1.6 nM |
| c1ccc(CCN2CCC(c3cc(-c4ccccn4)[nH]n3)CC2)cc1 | 3600 nM | 22 nM |
| Clc1ccc(CN2CCC(c3cc(-c4ccc(Cl)cc4)no3)CC2)cc1 | 80 nM |  |
| Clc1ccc(-c2cc(C3CCNCC3)[nH]n2)cc1 | > 4400 nM | > 3300 nM |
| Clc1ccc(-c2cc(C3CCN(Cc4ccccc4)CC3)[nH]n2)cc1 | 160 nM | 9.1 nM |
| Clc1ccc(-c2cc(C3CCN(Cc4ccccc4)C3)[nH]n2)cc1 (configuration not stated) | 920 nM | 110 nM |
| Clc1ccc(-c2cc(C3CCN(CCCc4ccccc4)CC3)[nH]n2)cc1 | 870 nM | 110 nM |
| c1ccc(CCN2CCC(c3cc(C4CCCCC4)n[nH]3)CC2)cc1 | 1200 nM | 10 nM |
| Clc1ccc(-c2cc(C3CCN(Cc4cccc(Cl)c4)CC3)[nH]n2)cc1 | 4300 nM | 60 nM |
| CCc1c(C2CCN(Cc3ccccc3)CC2)n[nH]c1-c1ccc(Cl)cc1 | 46 nM | 1.5 nM |
| c1ccc(CCN2CCC(c3cc(-c4ccncc4)n[nH]3)CC2)cc1 | > 4000 nM | 52 nM |
| CC1(c2cc(-c3ccc(Cl)cc3)[nH]n2)CCN(Cc2ccccc2)CC1 | 1300 nM | 47 nM |
| Cc1c(-c2ccccc2)n[nH]c1C1=CCN(CCc2ccccc2)CC1 | 830 nM | 3.1 nM |
| CN1CCC(c2cc(-c3ccc(Cl)cc3)[nH]n2)CC1 | > 1900 nM | 1200 nM |
| Cc1c(-c2ccc(Cl)cc2)nc(N)nc1C1CCN(CCc2ccccc2)CC1 | 1100 nM | 4.7 nM |
| Clc1ccc(-c2cc(C3CCCN(Cc4ccccc4)C3)[nH]n2)cc1 (configuration not stated) | 240 nM | 410 nM |
| Clc1ccc(-c2cc(C3CCCCN3Cc3ccccc3)[nH]n2)cc1 (configuration not stated) | 1800 nM | 4800 nM |
